ChEMBL document CHEMBL1149305, “Charge and substituent effects on affinity and metabolism of benzbromarone-based CYP2C19 inhibitors” (J Med Chem, 2004)

Key:
[1] = target: Cytochrome P450 2C19 (Homo sapiens, UniProt P33261); test: Inhibition of human CYP2C19; assay type: ADME
[2] = Dissociation constant, pKa of the compound; assay type: physicochemical
[3] = target: Cytochrome P450 2C9 (Homo sapiens, UniProt P11712); test: Inhibition of human CYP2C9
Sequence of Cytochrome P450 2C9 (P11712 whole entry): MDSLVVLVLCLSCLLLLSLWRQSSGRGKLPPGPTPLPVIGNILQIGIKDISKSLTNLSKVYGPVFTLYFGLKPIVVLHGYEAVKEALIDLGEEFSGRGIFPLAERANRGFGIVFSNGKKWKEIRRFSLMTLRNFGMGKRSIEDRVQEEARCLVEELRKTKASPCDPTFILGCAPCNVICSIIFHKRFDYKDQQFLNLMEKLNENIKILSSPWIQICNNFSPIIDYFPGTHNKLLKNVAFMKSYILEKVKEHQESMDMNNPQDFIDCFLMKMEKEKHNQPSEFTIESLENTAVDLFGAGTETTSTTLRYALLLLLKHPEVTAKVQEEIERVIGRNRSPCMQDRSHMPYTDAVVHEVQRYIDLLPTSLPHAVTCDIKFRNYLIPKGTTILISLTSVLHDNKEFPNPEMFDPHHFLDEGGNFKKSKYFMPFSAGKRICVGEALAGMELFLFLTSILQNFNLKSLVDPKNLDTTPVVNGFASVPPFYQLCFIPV

Sequence of Cytochrome P450 2C19 (P33261 whole entry): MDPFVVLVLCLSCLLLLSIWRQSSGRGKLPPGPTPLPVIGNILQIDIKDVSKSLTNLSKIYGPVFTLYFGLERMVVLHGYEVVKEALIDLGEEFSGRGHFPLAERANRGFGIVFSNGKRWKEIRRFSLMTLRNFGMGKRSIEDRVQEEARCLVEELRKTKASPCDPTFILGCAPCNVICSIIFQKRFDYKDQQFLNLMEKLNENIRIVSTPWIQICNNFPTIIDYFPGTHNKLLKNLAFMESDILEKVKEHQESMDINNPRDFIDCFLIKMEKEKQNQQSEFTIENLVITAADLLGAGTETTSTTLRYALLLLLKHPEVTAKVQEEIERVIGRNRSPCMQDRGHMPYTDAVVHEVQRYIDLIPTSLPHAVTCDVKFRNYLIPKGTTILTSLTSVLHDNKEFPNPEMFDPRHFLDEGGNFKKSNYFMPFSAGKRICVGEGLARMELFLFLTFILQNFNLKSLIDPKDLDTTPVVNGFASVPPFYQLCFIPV

Ki [1] | pKa [2] | Activity [2] | Structure (SMILES) | Ki [3]
0.25 µM | – | Not Active | CCc1oc2ccccc2c1C(=O)c1cc(C)c(OC)c(C)c1 | –
2.4 µM | – | – | Cc1oc2ccccc2c1C(=O)c1cc(Br)c(O)c(Br)c1 | –
13 µM | – | Not Active | CCc1oc2ccccc2c1C(=O)c1cc(Cl)nc(Cl)c1 | –
3.7 µM | – | Not Active | CCc1oc2ccccc2c1C(=O)c1ccc(N(C)C)cc1 | –
4.5 µM | – | Not Active | COc1ccc(C(=O)c2c(C)oc3ccccc23)cc1 | –
2.5 µM | 8.4 | – | Cc1oc2ccccc2c1C(=O)c1ccc(O)cc1 | –
4.5 µM | 8.4 | – | Cc1oc2ccccc2c1C(=O)c1cccc(O)c1 | –
7.2 µM | 5.2 | – | Cc1oc2ccccc2c1C(=O)c1cc(I)c(O)c(I)c1 | –
1.6 µM | 8.6 | – | CCc1oc2ccccc2c1C(=O)Cc1cc(Br)c(O)c(Br)c1 | –
13 µM | – | Not Active | Cc1oc2ccccc2c1C(=O)C1CCCCC1 | –
0.37 µM | – | Not Active | CCc1oc2ccccc2c1C(=O)c1cc(Br)c(OC)c(Br)c1 | –
– | 4.5 | – | CCc1oc2ccccc2c1C(=O)c1cc(Br)c(O)c(Br)c1 [BENZBROMARONE] | –

Structure (SMILES) | Ki [1] | pKa [2] | Activity [2] | Ki [3]
CCc1oc2ccccc2c1C(O)c1cc(Br)c(O)c(Br)c1 (configuration not stated) | 0.3 µM | 8.8 | – | –
CCc1oc2ccccc2c1C(=O)c1cc(C)c(O)c(C)c1 | 0.033 µM | 8.5 | – | 0.04 µM
